In EP4803511A1, “SMALL MOLECULE COMPOUND HAVING SULFONIC ACID OR SULFINIC ACID LACTONE STRUCTURE, COMPOSITION AND USE THEREOF” (Hangzhou Phecdamed Co., Ltd., priority 2023, dated 2025):
≈ marks a conversion by molar mass, not a printed value.

Tests used:
HaCaT cells = assay: ROS content / ROS scavenging rate in HaCaT after UVB radiation (DCFH-DA); assay type: cell-based, human; conditions: content 0.0025%; HaCaT cells after UVB radiation
Source text: Oxidative reactions such as respiration and metabolism in organisms generate reactive free radicals. Under normal bodily conditions, free radicals have a stable scavenging system, so that the free radical content of the body is kept at a relatively low concentration. Oxidative stress (OS) refers to an imbalance between oxidation and antioxidation in the body due to endogenous and/or exogenous stimuli, resulting in excessive free radical production. Excessive free radicals produce a series of negative effects in the body, including oxidative damage to biomolecules and further causing cell death and tissue damage, etc. In organisms, almost all ROS, except for trace amounts utilized by the body, should be promptly scavenged. Medium Wave Erythema Effect Ultraviolet (UVB) (280-319 nm) radiation damage is the most important factor leading to photoaging of the skin, primarily damaging keratinocytes (HaCaT), specifically manifested as the accumulation of photoproducts, increased ROS, and exacerbated oxidative damage, etc. Over long periods of evolution, organisms have developed a complete antioxidant system, maintaining a dynamic balance between the production and elimination of free radicals. This is an adaptive mechanism of organisms, and the main members include antioxidant enzymes, antioxidants, and proteins that separate transition metals, all of which can specifically limit oxidative damage to the body. Therefore, the antioxidant efficacy of a test compound can be evaluated by detecting the ROS scavenging rate in keratinocytes after UVB radiation.
• 1) Cell inoculation: HaCaT cells were inoculated into a 96-well plate at 2 × 10^4/well, cultured in an incubator (37 °C, 5% CO2) for 12 hrs, and a control group (120 mJ/cm^2 + vehicle control), a low concentration group (120 mJ/cm^2 + low concentration compound), a medium concentration group (120 mJ/cm^2 + medium concentration compound), and a high concentration group (120 mJ/cm^2 + high concentration compound) were respectively provided. • 2) UVB modeling: The HaCaT cells were washed 3 times with D'Hanks before UVB radiation, 50 µL of D'Hanks was added into the wells, to make the cells to be immersed, and the control group was coated with tinfoil and placed in the dark. For the test groups, UVB modeling was performed on the group requiring radiation, respectively. • 3) Administration: DMEM medium containing different concentrations of compound were added to each test group for continued culture for 24 hrs. • 4) Transferring the ROS fluorescent probe: DCFH-DA was Diluted to a final concentration of 10 µmol/L using PBS at a dilution ratio of 1:1000. The culture medium in all wells except the bare cell wells was discarded. After washing three times with PBS, 200 µL of DCFH-DA working solution was added to each well, then incubated in a CO2 incubator for 30 min, and after incubation, the cells in each well were washed with PBS for 3 times. • 5) Fluorescence analysis. The 96-well plate to be tested was placed on the detection stage of the fluorescence microplate reader, with the […] set to 525 nm, the excitation light wavelength set to 488 nm, and the reading was analyzed.
ROS scavenging rate (%) = (S(Modelcontrolgroup)−S(Samplegroup))/(S(Modelcontrolgroup)) × 100% [formula] wherein S is fluorescence intensity.

[1] = Kinetic solubility in aqueous buffer; assay type: physicochemical; conditions: 2 hrs at 25 °C
Experimental: Experimental Methods: 30 µL of the 10 mM DMSO stock solution of the compound to be test was placed in a solubility sample plate (duplicate), 970 µL of aqueous buffer solution was added to the plate, and the plate was sealed with a sealing membrane and shaken at 1100 rpm for 2 hrs at 25 °C. The sample in the solubility plate was transferred to a filter plate, and filtered to obtain a filtrate. 10 µL of the filtrate was transferred into 980 µL of methanol along with 10 µL of DMSO, and then the solution was diluted 10-fold with methanol:water (1:1), and the resulting sample was analyzed by LC-MS/MS to obtain Area (filtered). Separately, 10 mM of the DMSO stock solution of the compound to be test was diluted to 300 µM with DMSO. 10 µL of this 300 µM DMSO solution and 10 µL of aqueous buffer solution were added into 980 µL of methanol, and then diluted 10-fold with methanol:water (1:1), and the resulting sample was analyzed by LC-MS/MS to obtain Area (std). The kinetic solubility was calculated according to the following formula: Solubility(μM) = (Areafiltered × DFfiltered)/(Areastd × DFstd) × [std] × DFstd [formula] wherein DF is the dilution factor.

Structure (SMILES)	ROS scavenging rate (HaCaT cells)	solubility kinetic at 2 h [1]
CN(C)C(=O)Oc1ccc2c(c1)OS(=O)(=O)c1cc(OC(=O)N(C)C)ccc1-2 [Compound I-13]	35%	
CC(C)C(=O)Oc1ccc2c(c1)OS(=O)(=O)c1cc(OC(=O)C(C)C)ccc1-2 [Compound I-14]	29%	
O=c1oc2cc(O)ccc2c2ccc(O)cc12 [Urolithin A, reference compound]		98.8 µM (≈ 22.5 µg/mL)
